Values quoted from earlier work as cited in PMC7904233 (Journal of medicinal chemistry, 2020).

System: EBOV Zaire
Settings: in vivo; cited from earlier work

| SMILES | mouse survival |
| --- | --- |
| CN(C)CCOc1ccc(/C(=C(/CCCl)c2ccccc2)c2ccccc2)cc1 [Compound 1, Toremifene] | 50% |
| CCN(CC)CCOc1ccc(C(=C(Cl)c2ccccc2)c2ccccc2)cc1 [clomiphene] | 90% |
